Results as given in patent US20200288710A1, “SUBSTITUTED SULPHONAMIDES FOR CONTROLLING ANIMAL PESTS” (BAYER CROPSCIENCE AKTIENGESELLSCHAFT, priority 2016, published 2020).

Legend:
Format in all cases: in vivo
[1] = test system: Aphis gossypii; test: Aphis gossypii spray test; conditions: 100 ppm, cotton plants, after 6 days
Method: Aphis gossypii—Spray Test Solvent: 14 parts by weight of dimethylformamide Emulsifier: alkylaryl polyglycol ether To produce a suitable preparation of active compound, 1 part by weight of active compound is dissolved using the specified parts by weight of solvent and made up with water containing an emulsifier concentration of 1000 ppm until the desired concentration is attained. To produce further test concentrations, the formulation is diluted with emulsifier-containing water. If the addition of ammonium salts or/and penetrants is required, these are each added in a concentration of 1000 ppm to the formulation solution. Cotton plants (Gossypium hirsutum) which are heavily infested by the cotton aphid (Aphis gossypii) are sprayed with an active compound preparation of the desired concentration. After 6 days, the kill in % is determined. 100% means that all the aphids have been killed; 0% means that no aphids have been killed.

[2] = test system: Myzus persicae; test: Myzus persicae oral test; conditions: 120 h, 20 ppm, oral uptake, after 5 days, read-out: efficacy
Outline: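 Compound dissolved in acetone, diluted in water, then mixed 50:150 μl with IPL41 insect medium (33%+15% sugar). Mixed-population green peach aphids feed through a parafilm seal on the solution; mortality scored as % efficacy after 5 days (100% = all killed).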

[3] = test system: Meloidogyne incognita; test: Meloidogyne incognita test; conditions: 336 h, lettuce, after 14 days, read-out: nematicidal efficacy (formation of galls)
Outline: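 Active compound in acetone, diluted with water, added to sand-filled vessels with M. incognita eggs/larvae and lettuce seeds. After 14 days, efficacy scored by root gall formation: 100% = no galls, 0% = galls equal to untreated control.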

[4] = test system: Phaedon cochleariae; test: Phaedon cochleariae spray test; conditions: foliar, 168 h, Chinese cabbage leaf discs, larvae, after 7 days, read-out: efficacy
Outline: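 Compound dissolved in solvent and diluted with water containing 1000 ppm emulsifier to test concentrations. Efficacy read after 7 days as % beetle larvae killed (100% all killed, 0% none).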

[5] = test system: Lucilia cuprina; test: Lucilia cuprina test; conditions: 48 h, L1 larvae, after 2 days, read-out: efficacy (kill in %)
Outline: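 About 20 L1 larvae were held on minced horsemeat treated with compound, which was formulated in DMSO and diluted with water. Percent kill was scored after 2 days.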

[6] = test system: Myzus persicae; test: Myzus persicae spray test (Chinese cabbage leaf discs); conditions: foliar, 120 h, 500 g/ha, after 5-6 days, read-out: efficacy
Outline: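 Chinese cabbage leaf discs infested with all stages of green peach aphid were sprayed with compound formulated in acetone/DMF and emulsifier-containing water. Efficacy in % was scored after 5-6 days, with 100% meaning all aphids killed and 0% none killed.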

[7] = test system: Musca domestica; test: Musca domestica test; conditions: 48 h, adult houseflies, after 2 days, read-out: efficacy (kill in %)
Method: Musca domestica Test Solvent: dimethyl sulphoxide To produce a suitable preparation of active compound, 10 mg of active compound are mixed with 0.5 ml of dimethyl sulphoxide, and the concentrate is diluted with water to the desired concentration. Vessels containing a sponge treated with sugar solution and the active compound preparation of the desired concentration are populated with 10 adult houseflies (Musca domestica). After 2 days, the kill in % is determined. 100% means that all of the flies have been killed; 0% means that none of the flies have been killed.

[8] = test system: Myzus persicae; test: Myzus persicae spray test (bell pepper plants); conditions: 144 h, after 6 days, read-out: efficacy (kill in %)
Method: Myzus persicae—Spray Test Solvent: 14 parts by weight of dimethylformamide Emulsifier: alkylaryl polyglycol ether To produce a suitable preparation of active compound, 1 part by weight of active compound is dissolved using the specified parts by weight of solvent and made up with water containing an emulsifier concentration of 1000 ppm until the desired concentration is attained. To produce further test concentrations, the formulation is diluted with emulsifier-containing water. If the addition of ammonium salts or/and penetrants is required, these are each added in a concentration of 1000 ppm to the formulation solution. Bell pepper plants (Capsicum annuum) severely infested with the green peach aphid (Myzus persicae) are treated by spraying with the active compound preparation in the desired concentration. After 6 days, the kill in % is determined. 100% means that all of the aphids have been killed; 0% means that none of the aphids have been killed.

[9] = test system: Tetranychus urticae; test: Tetranychus urticae spray test, OP-resistant; conditions: foliar, 144 h, bean leaf discs, after 6 days, read-out: efficacy
Method: Tetranychus urticae—Spray Test, OP-Resistant
To produce a suitable preparation of active compound, 1 part by weight of active compound is dissolved using the specified parts by weight of solvent and made up with water containing an emulsifier concentration of 1000 ppm until the desired concentration is attained. To produce further test concentrations, the formulation is diluted with emulsifier-containing water.
Discs of bean leaves (Phaseolus vulgaris) infested with all stages of the greenhouse red spider mite (Tetranychus urticae) are sprayed with an active compound preparation of the desired concentration.
After 6 days, the efficacy in % is determined. 100% means that all the spider mites have been killed; 0% means that no spider mites have been killed.

[10] = test system: Boophilus microplus; test: Boophilus microplus injection test; conditions: 20 μg/animal, injection into engorged adult female cattle ticks, after 7 days
Method: Boophilus microplus—Injection Test Solvent: dimethyl sulphoxide To produce a suitable preparation of active compound, 10 mg of active compound are mixed with 0.5 ml of solvent and the concentrate is diluted with solvent to the desired concentration. 1 μl of the active compound solution is injected into the abdomen of 5 engorged adult female cattle ticks (Boophilus microplus). The animals are transferred into dishes and kept in a climate-controlled room. Efficacy is assessed after 7 days by laying of fertile eggs. Eggs which are not externally visibly fertile are stored in a climate-controlled cabinet until the larvae hatch after about 42 days. An efficacy of 100% means that none of the ticks has laid any fertile eggs; 0% means that all the eggs are fertile.

Compound	pest or weed control at 20 ppm [2] [%]	pest or weed control at 20 ppm [3] [%]	pest or weed control at 100 ppm [8] [%]	also measured
Cc1c(C(=O)NS(=O)(=O)c2ccccc2Cl)nc(-c2ccccc2Cl)n1C [Example 103]	100	100		efficacy (kill in %) [1]: 98%
Cc1ccc(C)c(S(=O)(=O)NC(=O)c2cn(C)c(-c3c(F)cccc3F)n2)c1 [Example 394]	100	90		pest or weed control at 500 g/ha [4]: 100%; pest or weed control at 100 ppm [5]: 95%; pest or weed control at 500 g/ha [6]: 100%; pest or weed control at 100 ppm [7]: 100%
Cc1cccc(C)c1S(=O)(=O)NC(=O)c1cn(C)c(-c2c(F)cccc2F)n1 [Example 186]	100	90		pest or weed control at 500 g/ha [4]: 100%; pest or weed control at 100 ppm [5]: 100%; pest or weed control at 500 g/ha [6]: 100%; pest or weed control at 100 ppm [7]: 85%
Cc1[nH]c(C(=O)NS(=O)(=O)c2ccccc2Br)nc1-c1c(F)cccc1F [Example 146]			90	
Cc1c(C(=O)NS(=O)(=O)c2ccccc2Br)nc(-c2c(F)cccc2F)n1C [Example 195]	100	90		pest or weed control at 500 g/ha [4]: 100%; pest or weed control at 20 ppm ([8]; 20 ppm): 80%; pest or weed control at 500 g/ha [9]: 90%
CCc1ccccc1S(=O)(=O)NC(=O)c1cn(C)c(-c2ccccc2Cl)n1 [Example 219]	100	90		efficacy (laying of fertile eggs) [10]: 80%; pest or weed control at 100 ppm [5]: 100%; pest or weed control at 500 g/ha [6]: 100%; pest or weed control at 100 ppm [7]: 85%
CCn1c(C(=O)NS(=O)(=O)c2ccccc2Br)nc(-c2c(F)cccc2F)c1C [Example 415]	100	100	100	
Cc1c(C(=O)NS(=O)(=O)c2ccccc2Cl)nc(-c2c(F)cccc2F)n1C [Example 194]	100	90		efficacy (kill in %) [1]: 100%
CCn1cc(C(=O)NS(=O)(=O)c2cc(OC)ccc2Cl)nc1-c1ccccc1Cl [Example 68]	100	90	100	pest or weed control at 100 ppm [5]: 100%; pest or weed control at 100 ppm [7]: 80%
Cc1ccccc1S(=O)(=O)NC(=O)c1cn(C)c(-c2cccc(F)c2F)n1 [Example 518]	100	90	95	
Cc1nc(C)c(S(=O)(=O)NC(=O)c2cn(C)c(-c3c(F)cccc3F)n2)s1 [Example 347]	90		90	
COc1ccccc1S(=O)(=O)NC(=O)c1cn(C)c(-c2ncccc2F)n1 [Example 538]	100	90	100	
Cc1ccc(C)c(S(=O)(=O)NC(=O)c2cn(C)c(-c3cccc4ccccc34)n2)c1 [Example 502]	100	100		efficacy (kill in %) [1]: 95%; pest or weed control at 500 g/ha [4]: 100%
Cc1ccccc1S(=O)(=O)NC(=O)c1cn(C)c(-c2ccc(Cl)c(Cl)c2)n1 [Example 536]	100	90	80	
Cc1[nH]c(-c2ccc(F)cc2F)nc1C(=O)NS(=O)(=O)c1ccccc1Cl [Example 616]	100	100	97	
Cn1cc(C(=O)NS(=O)(=O)Cc2ccccc2)nc1-c1ccccc1Cl [Example 60]	100	100	85	
Cc1ccccc1S(=O)(=O)NC(=O)c1cn(C)c(-c2c(C)cccc2C)n1 [Example 478]	100	90	99	
Cc1[nH]c(-c2ccc(Cl)c(Cl)c2)nc1C(=O)NS(=O)(=O)C(C)C [Example 237]	100		90	
Cc1ccccc1S(=O)(=O)NC(=O)c1cn(C)c(-c2ccccc2-c2ccccc2)n1 [Example 533]	100		90	
